In patent US6482802B1 (Endowment for Research in Human Biology, Inc., priority 1998, dated 2002):
Several values for one entry are separate records, joined by “and”; a condition that tells them apart may be missing. Identical values can stand only once. Entries after “also recorded” stand apart in the source; their conditions may differ.

Columns and labels:
HUVE cells [1] = assay: aFGF-induced proliferation of HUVE cells; assay type: cell-based, human; conditions: read-out: IC50, aFGF-induced proliferation of endothelial cells
Protocol: (§1) The cells were incubated at 37° C. under humidified air containing 5% CO2 for 48 hrs. […] Cell numbers were determined with a Coulter counter.

[2] = test system: chorioallantoic membrane (CAM) of chick embryos; assay: CAM assay, VEGF-induced angiogenesis; assay type: in vivo; conditions: for % Positive: VEGF alone 63, water 21
Protocol: (§2) Angiogenesis was measured on the CAM by the method of Knighton et al. (Knighton et al., 1977, Br. J. Cancer 35:347-356) essentially as described (Fett et al., 1985, Biochemistry 24:5480-5486). Fertilized chicken eggs were kept at 18° C. for 2 days and then incubated in a humidified environment at 37° C. for 3 days. Albumin was aspirated from the embryos and after 24 hours, a “window” was cut through the shell and covered with clear tape. […] After 48-68 hours at 37° C., the growth of blood vessels was observed microscopically and recorded as either positive or negative. A positive response (i.e., an angiogenic response) has a typical “spokewheel” appearance.

HUVE cells [3] = assay: bFGF-induced proliferation of HUVE cells (neomycin dose series); assay type: cell-based, human; conditions: for bFGF Cell No.: bFGF 10 ng/ml, 48 hrs, 0 μM: 59600 ± 2600
Protocol: as §1

HUVE cells [4] = assay: Angiogenin-induced proliferation of HUVE cells; assay type: cell-based, human
Protocol: HUVE cells were seeded at 4×10^3 cells/cm^2 in attachment factor (Cell Systems Corp.)-coated 35 mm dishes in HE-SFM, and incubated with 1 μg/ml angiogenin in the presence or absence of inhibitors at 37° C. for 48 hr. Cell were detached by trypsinization and cell numbers were determined with a Coulter counter.

HUVE cells [5] = assay: VEGF-induced proliferation of HUVE cells; assay type: cell-based, human; conditions: for VEGF Cell No.: VEGF 5 ng/ml, 48 hrs, 0 μM: 45100 ± 200
Protocol: as §1

[6] = test system: chorioallantoic membrane (CAM) of chick embryos; assay: CAM assay, angiogenin-induced angiogenesis; assay type: in vivo; conditions: for % Positive (angiogenic response): angiogenin alone 55, water 20
Protocol: as §2

HUVE cells [7] = assay: HUVE cell number with neomycin alone, no angiogenic factor; assay type: cell-based, human; conditions: 48 hrs, 0 μM: 31400 ± 400
Protocol: as §1

## neomycin
HUVE cells [1]
  IC50: ~100 µM
[2]; VEGF 10 ng + neomycin 200 ng
  % Inhibition of angiogenic activity: 10%
  % Positive: 58%
[2]; VEGF 10 ng + neomycin 200 ng, 24 total eggs
  Positive eggs: 14
[2]; VEGF 10 ng + neomycin 1000 ng
  % Inhibition of angiogenic activity: 24%
[2]; VEGF 10 ng + neomycin 1000 ng (1 μg)
  % Positive: 52%
[2]; VEGF 10 ng + neomycin 1000 ng, 27 total eggs
  Positive eggs: 14
[2]; VEGF 10 ng, neomycin 200 ng and 1 μg
  inhibition of angiogenic activity of VEGF on the CAM: did not significantly inhibit; also recorded: not significantly inhibited
[2]; dosage as high as 900 ng per embryo
  reduction of angiogenic activity of VEGF on the CAM: did not significantly reduce
HUVE cells [3]; neomycin 25 μM
  bFGF Inhib. % of cell proliferation: 19%
  bFGF Cell No.: 51500 ± 700
HUVE cells [3]; neomycin 50 μM
  bFGF Inhib. % of cell proliferation: 34%
  bFGF Cell No.: 45900 ± 1200
HUVE cells [3]; neomycin 100 μM
  bFGF Inhib. % of cell proliferation: 41%
  bFGF Cell No.: 42600 ± 200
HUVE cells [3]; neomycin 150 μM
  bFGF Inhib. % of cell proliferation: 49%
  bFGF Cell No.: 39900 ± 125
HUVE cells [3]; neomycin 200 μM
  bFGF Inhib. % of cell proliferation: 64%
  bFGF Cell No.: 34600 ± 400
HUVE cells [3]; read-out: IC50, bFGF-induced proliferation of endothelial cells
  IC50: ~100 µM
HUVE cells [4]; HUVE cells, angiogenin 1 μg/ml, 48 hr, read-out: IC50, angiogenin-induced EC proliferation
  IC50: ~10 µM and < 10 µM
HUVE cells [4]; aminoglycoside 100 μM, with angiogenin 1 μg/ml, none: 62,500 ± 100
  Cell number: 53,400 ± 1,900
HUVE cells [4]; aminoglycoside 100 μM, without angiogenin, none: 52,000 ± 100
  Cell number: 52,700 ± 700
HUVE cells [4]; aminoglycoside 100 μM, none: 120
  percent of cell number in the presence of 1 μg/ml angiogenin relative to the corresponding control: 101%
HUVE cells [4]; neomycin 5 μM, angiogenin 1 μg/ml, 48 hr
  inhibition of proliferative activity of angiogenin: 49%
HUVE cells [4]; neomycin 25 μM, angiogenin 1 μg/ml, 48 hr
  inhibition of angiogenin-induced cell proliferation: 69%
HUVE cells [4]; neomycin 50 μM, angiogenin 1 μg/ml, 48 hr
  angiogenin-induced cell proliferation: completely abolished
HUVE cells [4]; no angiogenin, 48 hr
  effect of neomycin alone on cell proliferation: neither induced nor inhibited cell proliferation
HUVE cells [5]; neomycin 25 μM
  VEGF Inhib. % of cell proliferation: 14%
  VEGF Cell No.: 41000 ± 300
HUVE cells [5]; neomycin 50 μM
  VEGF Inhib. % of cell proliferation: 20%
  VEGF Cell No.: 38900 ± 1300
HUVE cells [5]; neomycin 100 μM
  VEGF Inhib. % of cell proliferation: 22%
  VEGF Cell No.: 36400 ± 400
HUVE cells [5]; neomycin 150 μM
  VEGF Inhib. % of cell proliferation: 36%
  VEGF Cell No.: 35000 ± 200
HUVE cells [5]; neomycin 200 μM
  VEGF Inhib. % of cell proliferation: 34%
  VEGF Cell No.: 33800 ± 200
[6]; angiogenin 10 ng
  dose that abolishes the angiogenic activity of angiogenin: 20 ng per egg
[6]; angiogenin 10 ng + neomycin 4 ng
  % Positive (angiogenic response): 40%
[6]; angiogenin 10 ng + neomycin 20 ng
  % Positive (angiogenic response): 20%
[6]; angiogenin 10 ng + neomycin 200 ng
  % Positive (angiogenic response): 25%
HUVE cells [7]; neomycin 25 μM
  Control Cell No.: 29800 ± 300
HUVE cells [7]; neomycin 50 μM
  Control Cell No.: 28800 ± 1000
HUVE cells [7]; neomycin 100 μM
  Control Cell No.: 27900 ± 500
HUVE cells [7]; neomycin 150 μM
  Control Cell No.: 27400 ± 200
HUVE cells [7]; neomycin 200 μM
  Control Cell No.: 26300 ± 400
